# Biological target: Prostaglandin G/H synthase (cyclooxygenase) (Ovis aries) (UniProt P05979+P79208)
# Assay: Effect on ram seminal vesicle cyclooxygenase activity at 10e-4 M; no significant effect
# Assay type: tissue-based
# Sequence of Prostaglandin G/H synthase (cyclooxygenase) (Ovis aries) (P05979 whole entry, looked up): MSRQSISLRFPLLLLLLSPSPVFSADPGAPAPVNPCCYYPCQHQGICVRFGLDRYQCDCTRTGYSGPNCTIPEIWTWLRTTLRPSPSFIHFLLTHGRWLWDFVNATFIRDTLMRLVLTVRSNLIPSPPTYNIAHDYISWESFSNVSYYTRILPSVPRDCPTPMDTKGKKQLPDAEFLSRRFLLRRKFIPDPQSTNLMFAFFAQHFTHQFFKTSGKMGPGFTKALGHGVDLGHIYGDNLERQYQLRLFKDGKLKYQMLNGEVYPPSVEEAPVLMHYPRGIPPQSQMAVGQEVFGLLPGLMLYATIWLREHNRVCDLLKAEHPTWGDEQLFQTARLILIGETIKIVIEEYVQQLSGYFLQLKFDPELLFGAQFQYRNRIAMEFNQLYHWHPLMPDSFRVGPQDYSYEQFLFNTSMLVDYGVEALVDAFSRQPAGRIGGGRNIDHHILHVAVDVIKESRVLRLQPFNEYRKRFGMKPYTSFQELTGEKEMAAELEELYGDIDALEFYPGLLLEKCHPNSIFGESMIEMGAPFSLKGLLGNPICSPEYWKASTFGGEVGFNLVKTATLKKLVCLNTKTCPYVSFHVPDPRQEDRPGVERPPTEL
# Sequence of Prostaglandin G/H synthase (cyclooxygenase) (Ovis aries) (P79208 whole entry, looked up): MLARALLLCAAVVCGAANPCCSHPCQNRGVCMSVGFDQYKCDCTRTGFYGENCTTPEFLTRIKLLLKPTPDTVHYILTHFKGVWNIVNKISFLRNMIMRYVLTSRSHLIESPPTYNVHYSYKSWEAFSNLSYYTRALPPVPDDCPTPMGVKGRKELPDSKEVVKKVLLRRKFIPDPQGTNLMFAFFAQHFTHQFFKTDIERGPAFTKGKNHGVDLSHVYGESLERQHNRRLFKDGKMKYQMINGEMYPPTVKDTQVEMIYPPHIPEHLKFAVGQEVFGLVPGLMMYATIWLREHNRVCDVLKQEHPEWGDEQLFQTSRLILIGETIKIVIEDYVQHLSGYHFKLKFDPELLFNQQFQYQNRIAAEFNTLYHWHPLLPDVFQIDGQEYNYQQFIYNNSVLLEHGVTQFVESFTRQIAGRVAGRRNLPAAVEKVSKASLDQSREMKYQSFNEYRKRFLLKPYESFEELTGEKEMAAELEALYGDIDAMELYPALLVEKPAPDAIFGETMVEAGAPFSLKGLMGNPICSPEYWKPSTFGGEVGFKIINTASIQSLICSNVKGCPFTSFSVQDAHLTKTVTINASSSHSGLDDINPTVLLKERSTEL
row,Effect,SMILES
1,No effect,Cc1c(C(=O)O)sc2cc(Cn3ccnc3)ccc12

# Biological target: T1, Cytochrome P450 11B1, mitochondrial (Rattus norvegicus, UniProt P15393)
# T1 sequence (P15393 whole entry): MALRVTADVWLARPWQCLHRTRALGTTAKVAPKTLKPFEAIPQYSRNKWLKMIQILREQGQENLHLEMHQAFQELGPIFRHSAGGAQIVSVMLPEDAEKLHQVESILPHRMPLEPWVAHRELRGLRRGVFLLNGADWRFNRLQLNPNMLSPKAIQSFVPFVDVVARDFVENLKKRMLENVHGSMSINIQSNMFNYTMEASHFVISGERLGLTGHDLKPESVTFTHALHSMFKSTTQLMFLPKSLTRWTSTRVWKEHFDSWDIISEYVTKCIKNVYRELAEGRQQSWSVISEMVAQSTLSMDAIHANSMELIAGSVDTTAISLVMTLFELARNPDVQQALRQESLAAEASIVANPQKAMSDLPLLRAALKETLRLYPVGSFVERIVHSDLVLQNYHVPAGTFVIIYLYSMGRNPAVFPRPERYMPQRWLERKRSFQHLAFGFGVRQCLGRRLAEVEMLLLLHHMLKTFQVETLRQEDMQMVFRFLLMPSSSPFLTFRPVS
# Assay: Effect on adrenal 11-beta-hydroxylase activity at 10e-4 M; No significant effect
row,Effect,SMILES
1,No effect,Cc1c(C(=O)O)sc2cc(Cn3ccnc3)ccc12

# Test system: Prostacyclin synthase (Sus scrofa)
# Assay: Effect on porcine aorta prostacyclin (PGI-2) synthase activity at 10e-4 M; No significant effect
row,Effect,SMILES
1,No effect,Cc1c(C(=O)O)sc2cc(Cn3ccnc3)ccc12

# Biological target: T2, Thromboxane-A synthase (Homo sapiens, UniProt P24557)
# T2 sequence (P24557 whole entry): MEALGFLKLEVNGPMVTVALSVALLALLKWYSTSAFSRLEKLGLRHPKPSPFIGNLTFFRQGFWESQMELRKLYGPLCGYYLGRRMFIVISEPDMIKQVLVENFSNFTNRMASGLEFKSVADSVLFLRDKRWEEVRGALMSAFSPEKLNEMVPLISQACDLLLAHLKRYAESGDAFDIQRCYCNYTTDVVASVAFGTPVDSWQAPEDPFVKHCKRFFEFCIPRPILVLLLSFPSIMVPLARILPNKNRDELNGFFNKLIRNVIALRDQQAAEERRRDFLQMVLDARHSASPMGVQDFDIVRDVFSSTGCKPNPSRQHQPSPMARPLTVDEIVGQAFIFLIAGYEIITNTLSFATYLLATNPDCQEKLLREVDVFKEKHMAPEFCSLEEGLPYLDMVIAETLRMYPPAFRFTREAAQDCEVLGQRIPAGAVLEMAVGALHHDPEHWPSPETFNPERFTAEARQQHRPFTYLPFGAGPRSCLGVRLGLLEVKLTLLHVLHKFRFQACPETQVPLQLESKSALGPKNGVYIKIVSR
# Assay: In vitro inhibition of thromboxane synthase from human platelets.
row,SMILES,IC50 [nM]
1,O=C(O)c1cc2ccc(Cn3ccnc3)cc2s1,18
2,COc1cc(Cn2ccnc2)cc2sc(C(=O)O)cc12,5
3,O=C(O)c1cc2ccc(Cn3ccnc3)cc2o1,20
4,Cc1c(C(=O)O)sc2cc(OCCn3ccnc3)ccc12,140
5,O=C(O)c1cc2ccc(Cn3ccnc3)cc2[nH]1,33
6,Cc1c(C(=O)O)sc2cc(Cn3ccnc3)ccc12,5.2
7,O=C(O)c1sc2cc(Cn3ccnc3)ccc2c1Cl,7.4
8,O=C(O)c1csc2cc(Cn3ccnc3)ccc12,19
9,O=C(O)c1cc2cc(Cn3ccnc3)ccc2[nH]1,5
10,O=C(O)COc1ccc(Cn2ccnc2)cc1,31
11,O=C(O)c1cc2cc(Cn3ccnc3)ccc2s1,21
12,O=C(O)c1cc2cccc(Cn3ccnc3)c2s1,120

# More lines, now with the values ahead:
row,IC50 [nM],SMILES
1,34,O=C(O)c1csc2c(Cn3ccnc3)cccc12
2,52,O=C(O)c1cc2c(O)cc(Cn3ccnc3)cc2s1
3,34,O=C(O)c1cc2cc(Cn3ccnc3)ccc2o1
4,29,Cc1c(C(=O)O)sc2ccc(Cn3ccnc3)cc12
5,1700,O=C(O)c1csc2ccc(Cn3ccnc3)cc12
6,420,O=C(O)c1cc2cc(OCCn3ccnc3)ccc2s1

# Reference: ChEMBL document CHEMBL1123466, “Selective thromboxane synthetase inhibitors. 3. 1H-imidazol-1-yl-substituted benzo[b]furan-, benzo[b]thiophene-, and indole-2- and -3-carboxylic acids” (J Med Chem, 1986)
